# Measured values: patent publication US8592161B2, “Mutational profiles in HIV-1 protease correlated with phenotypic drug resistance” (Janssen R&D Ireland, priority 2002, dated 2013)
# Test system: HIV-1/LAI
# Test: In vitro antiviral activity in acutely infected MT4 cells, wild type
# Type: cell-based
# Details: Human immunodeficiency virus 1, MT4, Table 1, wild-type HIV/LAI, read-out: median EC50
# Experimental: (§1) Determination of the antiviral activity of a compound was done as described in Pauwels R. et al. (J Virol Methods 1988; 20(4):309-21). Various concentrations of the test compounds were brought into each well of a flat-bottom microtiter plate. Subsequently, HIV and MT4 cells were added to a final concentration of 200-250 50% cell culture infectious doses (CCID50)/well and 30,000 cells/well, respectively. After 5 days of incubation (37° C., 5% CO2), the cytopathic effect of the replicating virus was determined by the tetrazolium colorimetric MTT method. The dose protecting 50% of the cells from virus cytopathic effect was defined as the EC50, while the dose achieving 90% protection was defined as the EC90.
# (§2) MT4-LTR-EGFP cells were infected at a multiplicity of infection (MOI) of 0.01 to 0.001 CCID50/cell in the presence of inhibitor. The starting concentration of the inhibitor was two to tee times the EC50, a suboptimal concentration. The cultures were sub-cultivated and scored microscopically on virus-induced fluorescence and cytopathicity every 3-4 days. The cultures were sub-cultivated in the presence of the same compound concentration until signs of virus replication were observed. The escaping virus was further cultivated in the presence of the same inhibitor concentration in order to enrich the population in resistant variants. If full virus breakthrough was observed the supernatant was collected and stored (new virus strain). Afterwards, the same virus was challenged with a higher compound concentration in order to select variants able to grow in the presence of as high as possible inhibitor concentrations. From the new viruses, a virus stock was grown in the absence of inhibitor.
# (§3) In vitro drug selection experiments starting from wild-type HIV-1 under pressure of compound 1, compound 2, and Nelfinavir (NFV) have been performed. Tables 1, 2, 3, 4, and 5 show the genotypic and phenotypic characterization of the selected strains.
row,Compound,EC50 [nM]
1,Cc1c(O)cccc1C(=O)N[C@@H](CSc1ccccc1)[C@H](O)CN1C[C@H]2CCCC[C@H]2C[C@H]1C(=O)NC(C)(C)C [Nelfinavir],30

# Same assay, conditions: Human immunodeficiency virus 1, MT4, Table 2, wild-type HIV-1/LAI, read-out: median EC50
row,Compound,EC50 [nM]
1,Cc1c(O)cccc1C(=O)N[C@@H](CSc1ccccc1)[C@H](O)CN1C[C@H]2CCCC[C@H]2C[C@H]1C(=O)NC(C)(C)C [Nelfinavir],38

# Same assay, conditions: Human immunodeficiency virus 1, MT4, Table 3, wild-type HIV-1/LAI, read-out: median EC50
row,Compound,EC50 [nM]
1,Cc1c(O)cccc1C(=O)N[C@@H](CSc1ccccc1)[C@H](O)CN1C[C@H]2CCCC[C@H]2C[C@H]1C(=O)NC(C)(C)C [Nelfinavir],38

# Same assay, conditions: Human immunodeficiency virus 1, MT4, Table 4, wild-type HIV-1/LAI, read-out: median EC50
row,Compound,EC50 [nM]
1,Cc1c(O)cccc1C(=O)N[C@@H](CSc1ccccc1)[C@H](O)CN1C[C@H]2CCCC[C@H]2C[C@H]1C(=O)NC(C)(C)C [Nelfinavir],38

# Same assay, conditions: Human immunodeficiency virus 1, MT4, Table 5, wild-type HIV-1/LAI, read-out: median EC50
row,Compound,EC50 [nM]
1,Cc1c(O)cccc1C(=O)N[C@@H](CSc1ccccc1)[C@H](O)CN1C[C@H]2CCCC[C@H]2C[C@H]1C(=O)NC(C)(C)C [Nelfinavir],38

# Test system: HIV-1 strain selected with Comp 1 (20 nM, 94 days), protease R41G/R V82V/I
# Test: In vitro antiviral activity in acutely infected MT4 cells, selected strain
# Type: cell-based
# Details: Human immunodeficiency virus 1, Table 4, strain R41G/R V82V/I (Comp 1 20 nM, 94 days), read-out: median EC50
# Experimental: as §1, §2, §3
row,Compound,EC50 [nM]
1,Cc1c(O)cccc1C(=O)N[C@@H](CSc1ccccc1)[C@H](O)CN1C[C@H]2CCCC[C@H]2C[C@H]1C(=O)NC(C)(C)C [Nelfinavir],5.7

# Same assay, conditions: Table 4, strain R41G/R V82V/I (Comp 1 20 nM, 94 days)
row,Compound,median FC (fold change in EC50 as compared to wild type)
1,Cc1c(O)cccc1C(=O)N[C@@H](CSc1ccccc1)[C@H](O)CN1C[C@H]2CCCC[C@H]2C[C@H]1C(=O)NC(C)(C)C [Nelfinavir],0

# Test system: HIV-1 strain selected with Comp 1 (40 nM, 161 days), protease R41G V82I
# Test: as above
# Type: cell-based
# Details: Human immunodeficiency virus 1, Table 4, strain R41G V82I (Comp 1 40 nM, 161 days), read-out: median EC50
# Experimental: as §1, §2, §3
row,Compound,EC50 [nM]
1,Cc1c(O)cccc1C(=O)N[C@@H](CSc1ccccc1)[C@H](O)CN1C[C@H]2CCCC[C@H]2C[C@H]1C(=O)NC(C)(C)C [Nelfinavir],11

# Same assay, conditions: Table 4, strain R41G V82I (Comp 1 40 nM, 161 days)
row,Compound,median FC (fold change in EC50 as compared to wild type)
1,Cc1c(O)cccc1C(=O)N[C@@H](CSc1ccccc1)[C@H](O)CN1C[C@H]2CCCC[C@H]2C[C@H]1C(=O)NC(C)(C)C [Nelfinavir],0

# Test system: HIV-1 strain selected with Comp 1 (40 nM, 175 days), protease R41G V82I
# Test: as above
# Type: cell-based
# Details: Human immunodeficiency virus 1, Table 4, strain R41G V82I (Comp 1 40 nM, 175 days), read-out: median EC50
# Experimental: as §1, §2, §3
row,Compound,EC50 [nM]
1,Cc1c(O)cccc1C(=O)N[C@@H](CSc1ccccc1)[C@H](O)CN1C[C@H]2CCCC[C@H]2C[C@H]1C(=O)NC(C)(C)C [Nelfinavir],16

# Same assay, conditions: Table 4, strain R41G V82I (Comp 1 40 nM, 175 days)
row,Compound,median FC (fold change in EC50 as compared to wild type)
1,Cc1c(O)cccc1C(=O)N[C@@H](CSc1ccccc1)[C@H](O)CN1C[C@H]2CCCC[C@H]2C[C@H]1C(=O)NC(C)(C)C [Nelfinavir],0

# Test system: HIV-1/LAI strain selected with Comp 1 (100 nM, 139 days), protease S37S/N R41R/K K70E
# Test: as above
# Type: cell-based
# Details: Human immunodeficiency virus 1, Table 2, strain S37S/N R41R/K K70E (Comp 1 100 nM, 139 days), read-out: median EC50
# Experimental: as §1, §2, §3
row,Compound,EC50 [nM]
1,Cc1c(O)cccc1C(=O)N[C@@H](CSc1ccccc1)[C@H](O)CN1C[C@H]2CCCC[C@H]2C[C@H]1C(=O)NC(C)(C)C [Nelfinavir],9.7

# Same assay, conditions: Table 2, strain S37S/N R41R/K K70E (Comp 1 100 nM, 139 days)
row,Compound,median FC (fold change in EC50 as compared to wild type)
1,Cc1c(O)cccc1C(=O)N[C@@H](CSc1ccccc1)[C@H](O)CN1C[C@H]2CCCC[C@H]2C[C@H]1C(=O)NC(C)(C)C [Nelfinavir],0.3

# Test system: HIV-1/LAI strain selected with Comp 1 (100 nM, 195 days), protease S37N R41S K70E
# Test: as above
# Type: cell-based
# Details: Human immunodeficiency virus 1, Table 2, strain S37N R41S K70E (Comp 1 100 nM, 195 days), read-out: median EC50
# Experimental: as §1, §2, §3
row,Compound,EC50 [nM]
1,Cc1c(O)cccc1C(=O)N[C@@H](CSc1ccccc1)[C@H](O)CN1C[C@H]2CCCC[C@H]2C[C@H]1C(=O)NC(C)(C)C [Nelfinavir],9.5

# Same assay, conditions: Table 2, strain S37N R41S K70E (Comp 1 100 nM, 195 days)
row,Compound,median FC (fold change in EC50 as compared to wild type)
1,Cc1c(O)cccc1C(=O)N[C@@H](CSc1ccccc1)[C@H](O)CN1C[C@H]2CCCC[C@H]2C[C@H]1C(=O)NC(C)(C)C [Nelfinavir],0.3
